Where two headings read alike, the source gives them in different places.
Target: T1, Cbl-B (Homo sapiens, UniProt Q13191)
T1 construct: MSD-Based Assay for Degradation of Cbl-B in THP-1 Cells; endogenous in cells; host or cells: THP-1 (title) / Jurkat (protocol text)
Assay: MSD-based assay for degradation of Cbl-B in THP-1 cells
Type: cell-based
Procedure: MSD-Based Assay for Degradation of Cbl-B in THP-1 Cells
Assay plates were then shaken at 600 rpm for 5 minutes, followed by incubation for 24 hours in the 37° C. TC incubator. […] Cell debris was then spun down at maximum speed (about 3200 g) for 30 min and lysates frozen in the −80° C. fridge. Meanwhile, MSD plates (L15XA-3) were coated overnight at 4° C. with 1 ug/mL capture antibody (Anti-Cbl-B antibody, 246C5a and Mouse mAB, ab54362). […] Blocking buffer was 3% Blocker A (MSD, R93BA-4) in TBST. Plates were washed 3× with 150 ul/well of 1×TBST and sample lysates (70 ul/well) then added, followed by shaking for 1 hr at RT, 600 rpm. […] Plates were again washed 3× with 150 ul/well of 1×TBST, followed by addition of Secondary Detection antibody, SULFO-TAG anti-species antibody (Anti Rabbit Antibody (R32AB-5) MSD, R32AB-1) at a final concentration of 1 ug/ml and 25 uL/well, followed by shaking for 1 hr at RT, 600 rpm. Plates were again washed 3× with 150 ul/well of 1×TBST, followed by addition of 1×MSD reading buffer (MSD, R92TC-2), 150 ul/well, diluted from 4× with water.
Compound Dmax were binned into A through D as follows: A indicates >70%, B indicates 50-70%, C indicates 30-50%, D indicates <30%.

[1] = Cbl-B degradation, Jurkat cells seeded (heading: THP-1 cells), 24 hours incubation, MSD readout
[2] = Cbl-B degradation, Jurkat cells seeded (heading: THP-1 cells), 24 hours incubation, MSD readout, read-out: Dmax

T1 sequence (Q13191 whole entry): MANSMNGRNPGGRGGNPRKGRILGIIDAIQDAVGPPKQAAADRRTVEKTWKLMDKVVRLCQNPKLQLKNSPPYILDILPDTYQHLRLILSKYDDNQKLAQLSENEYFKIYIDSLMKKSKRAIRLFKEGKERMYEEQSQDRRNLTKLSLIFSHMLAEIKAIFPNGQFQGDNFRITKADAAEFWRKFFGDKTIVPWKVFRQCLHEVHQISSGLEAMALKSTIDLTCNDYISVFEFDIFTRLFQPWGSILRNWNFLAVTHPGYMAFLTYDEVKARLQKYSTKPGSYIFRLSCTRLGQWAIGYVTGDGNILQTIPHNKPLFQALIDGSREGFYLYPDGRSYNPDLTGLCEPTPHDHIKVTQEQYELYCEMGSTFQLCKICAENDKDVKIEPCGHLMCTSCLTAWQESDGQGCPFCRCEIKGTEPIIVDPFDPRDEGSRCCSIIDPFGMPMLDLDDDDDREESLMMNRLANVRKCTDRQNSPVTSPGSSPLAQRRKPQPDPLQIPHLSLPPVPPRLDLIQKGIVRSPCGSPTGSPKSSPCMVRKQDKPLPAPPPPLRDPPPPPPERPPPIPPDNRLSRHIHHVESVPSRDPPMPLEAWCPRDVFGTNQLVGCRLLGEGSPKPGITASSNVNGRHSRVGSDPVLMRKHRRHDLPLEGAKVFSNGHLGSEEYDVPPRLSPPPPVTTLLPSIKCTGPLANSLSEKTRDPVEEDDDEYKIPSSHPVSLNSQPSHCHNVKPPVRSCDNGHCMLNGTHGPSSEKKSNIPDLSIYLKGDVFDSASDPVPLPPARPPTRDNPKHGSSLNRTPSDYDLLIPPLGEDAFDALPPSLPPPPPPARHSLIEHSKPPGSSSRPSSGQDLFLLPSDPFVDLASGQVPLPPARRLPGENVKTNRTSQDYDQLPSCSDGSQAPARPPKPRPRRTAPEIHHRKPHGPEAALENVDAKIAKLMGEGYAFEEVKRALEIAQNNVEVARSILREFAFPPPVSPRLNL

| DC50 [1] [µM] | Dmax [2] [%] | Structure (SMILES) | Dmax (THP-1) [%] |
| --- | --- | --- | --- |
| > 10 | < 30 | Cn1cnnc1[C@@H](c1cccc(-n2cc3c(C(F)(F)F)cc(CN4CCC(OCCOCc5ccc(COCCNc6cccc7c6C(=O)N(C6CCC(=O)NC6=O)C7=O)cc5)CC4)cn3c2=O)c1)C1CCC1 (single isomer, unassigned) [Compound 5] | – |
| 0.03 to 0.3 | 50 to 70 | Cn1cnnc1[C@H](c1cccc(-n2cc3c(C(F)(F)F)cc(CN4CCC(OCCOCc5ccc(COCCNc6cccc7c6C(=O)N(C6CCC(=O)NC6=O)C7=O)cc5)CC4)cn3c2=O)c1)C1CCC1 (single isomer, unassigned) [Compound 6] | – |
| 1 to 10 | < 30 | Cn1cnnc1[C@@H](c1cccc(-n2cc3c(C(F)(F)F)cc(CN4CCC(N5CCN(c6ccc7c(c6)CN([C@H]6CCC(=O)NC6=O)C7=O)CC5)CC4)cn3c2=O)c1)C1CCC1 (single isomer, unassigned) [Compound 41] | – |
| 0.3 to 1 | 50 to 70 | Cn1cnnc1CC1(c2cccc(-n3cc4c(C(F)(F)F)cc(CN5CCC(OCCN6CCC(CN7CCN(c8ccc9c(c8)CN([C@@H]8CCC(=O)NC8=O)C9=O)CC7)CC6)CC5)cn4c3=O)c2)COC1 (single isomer, unassigned) [Compound 47] | – |
| 0.3 to 1 | 30 to 50 | Cn1cnnc1[C@@H](c1cccc(-n2cc3c(C(F)(F)F)cc(CN4CCC(OCCN5CCC(CN6CCN(c7ccc8c(c7)CN([C@@H]7CCC(=O)NC7=O)C8=O)CC6)CC5)CC4)cn3c2=O)c1)C1CCC1 (single isomer, unassigned) [Compound 48] | – |
| 0.03 to 0.3 | > 70 | Cn1cnnc1CC1(c2cccc(-n3cc4c(C(F)(F)F)cc(CN5CCC[C@@H](OCCN6CCC(CN7CCN(c8ccc9c(c8)CN([C@H]8CCC(=O)NC8=O)C9=O)CC7)CC6)C5)cn4c3=O)c2)COC1 (single isomer, unassigned) [Compound 50] | – |
| 0.3 to 1 | 50 to 70 | Cn1cnnc1CC1(c2cccc(-n3cc4c(C(F)(F)F)cc(CN5CCC[C@H](OCCN6CCC(CN7CCN(c8ccc9c(c8)CN([C@@H]8CCC(=O)NC8=O)C9=O)CC7)CC6)C5)cn4c3=O)c2)COC1 (single isomer, unassigned) [Compound 51] | – |
| 0.03 to 0.3 | > 70 | Cn1cnnc1CC1(c2cccc(-n3cc4c(C(F)(F)F)cc(CN5CCC[C@H](OCCN6CCC(CN7CCN(c8ccc9c(c8)CN([C@H]8CCC(=O)NC8=O)C9=O)CC7)CC6)C5)cn4c3=O)c2)COC1 (single isomer, unassigned) [Compound 52] | – |
| 0.03 to 0.3 | > 70 | Cn1cnnc1[C@@H](c1cccc(-n2cc3c(C(F)(F)F)cc(CN4CCC[C@@H](OCCN5CCC(CN6CCN(c7ccc8c(c7)CN([C@H]7CCC(=O)NC7=O)C8=O)CC6)CC5)C4)cn3c2=O)c1)C1CCC1 (single isomer, unassigned) [Compound 54] | – |
| < 0.03 | > 70 | Cn1cnnc1[C@@H](c1cccc(-n2cc3c(C(F)(F)F)cc(CN4CCN(CCN5CCC(CN6CCN(c7ccc8c(c7)CN([C@H]7CCC(=O)NC7=O)C8=O)CC6)CC5)CC4)cn3c2=O)c1)C1CCC1 (single isomer, unassigned) [Compound 64] | – |
| > 10 | < 30 | Cn1cnnc1CC1(c2cccc(-n3cc4c(C(F)(F)F)cc(CN5CCC(OCCCN6CCN(c7ccc8c(c7)CN([C@H]7CCC(=O)NC7=O)C8=O)CC6)CC5)cn4c3=O)c2)COC1 (single isomer, unassigned) [Compound 68] | – |
| > 10 | 30 to 50 | Cn1cnnc1[C@@H](c1cccc(-n2cc3c(C(F)(F)F)cc(CN4CCC(OCCCN5CCN(c6ccc7c(c6)CN([C@H]6CCC(=O)NC6=O)C7=O)CC5)CC4)cn3c2=O)c1)C1CCC1 (single isomer, unassigned) [Compound 72] | – |
| < 0.03 | 50 to 70 | Cn1cnnc1CC1(c2cccc(-n3cc4c(C(F)(F)F)cc(CN5CCC(OCCN6CCN(CC7CCN(c8ccc9c(c8)CN([C@H]8CCC(=O)NC8=O)C9=O)CC7)CC6)CC5)cn4c3=O)c2)COC1 (single isomer, unassigned) [Compound 78] | – |
| < 0.03 | 50 to 70 | Cn1cnnc1[C@@H](c1cccc(-n2cc3c(C(F)(F)F)cc(CN4CCC(OCCN5CCN(CC6CCN(c7ccc8c(c7)CN([C@H]7CCC(=O)NC7=O)C8=O)CC6)CC5)CC4)cn3c2=O)c1)C1CCC1 (single isomer, unassigned) [Compound 80] | – |
| > 10 | – | Cn1cnnc1[C@@H](c1cccc(-n2cc3c(C(F)(F)F)cc(CN4CCC[C@H](OCc5ccc(CN6CCN(c7ccc8c(c7)CN([C@@H]7CCC(=O)NC7=O)C8=O)CC6)cc5)C4)cn3c2=O)c1)C1CCC1 (single isomer, unassigned) [Compound 81] | – |

| Structure (SMILES) | DC50 [1] [µM] | Dmax [2] [%] | Dmax (THP-1) [%] |
| --- | --- | --- | --- |
| Cn1cnnc1[C@@H](c1cccc(-n2cc3c(C(F)(F)F)cc(CN4CCC(N5CCN(c6ccc7c(c6)CN([C@@H]6CCC(=O)NC6=O)C7=O)CC5)CC4)cn3c2=O)c1)C1CCC1 (single isomer, unassigned) [Compound 40] | 1 to 10 | – | < 30 |
| Cn1cnnc1CC1(c2cccc(-n3cc4c(C(F)(F)F)cc(CN5CCC[C@@H](OCCN6CCC(CN7CCN(c8ccc9c(c8)CN([C@@H]8CCC(=O)NC8=O)C9=O)CC7)CC6)C5)cn4c3=O)c2)COC1 (single isomer, unassigned) [Compound 49] | 0.3 to 1 | 50 to 70 | – |
| Cn1cnnc1[C@@H](c1cccc(-n2cc3c(C(F)(F)F)cc(CN4CCC[C@@H](OCCN5CCC(CN6CCN(c7ccc8c(c7)CN([C@@H]7CCC(=O)NC7=O)C8=O)CC6)CC5)C4)cn3c2=O)c1)C1CCC1 (single isomer, unassigned) [Compound 53] | 1 to 10 | – | 50 to 70 |
| Cn1cnnc1CC1(c2cccc(-n3cc4c(C(F)(F)F)cc(CN5CCN(CCN6CCC(CN7CCN(c8ccc9c(c8)CN([C@@H]8CCC(=O)NC8=O)C9=O)CC7)CC6)CC5)cn4c3=O)c2)COC1 (single isomer, unassigned) [Compound 61] | 0.03 to 0.3 | – | 50 to 70 |
| Cn1cnnc1CC1(c2cccc(-n3cc4c(C(F)(F)F)cc(CN5CCC(OCCCN6CCN(c7ccc8c(c7)CN([C@@H]7CCC(=O)NC7=O)C8=O)CC6)CC5)cn4c3=O)c2)COC1 (single isomer, unassigned) [Compound 67] | > 10 | – | < 30 |
| Cn1cnnc1[C@@H](c1cccc(-n2cc3c(C(F)(F)F)cc(CN4CCC(OCCCN5CCN(c6ccc7c(c6)CN([C@@H]6CCC(=O)NC6=O)C7=O)CC5)CC4)cn3c2=O)c1)C1CCC1 (single isomer, unassigned) [Compound 71] | > 10 | < 30 | – |
| Cn1cnnc1CC1(c2cccc(-n3cc4c(C(F)(F)F)cc(CN5CCC(OCCN6CCN(CC7CCN(c8ccc9c(c8)CN([C@@H]8CCC(=O)NC8=O)C9=O)CC7)CC6)CC5)cn4c3=O)c2)COC1 (single isomer, unassigned) [Compound 77] | 0.3 to 1 | – | 30 to 50 |
| Cn1cnnc1[C@@H](c1cccc(-n2cc3c(C(F)(F)F)cc(CN4CCC(OCCN5CCN(CC6CCN(c7ccc8c(c7)CN([C@@H]7CCC(=O)NC7=O)C8=O)CC6)CC5)CC4)cn3c2=O)c1)C1CCC1 (single isomer, unassigned) [Compound 79] | 1 to 10 | 30 to 50 | – |
| Cn1cnnc1CC1(c2cccc(-n3cc4c(C(F)(F)F)cc(CN5CCC[C@H](OCc6ccc(CN7CCN(c8ccc9c(c8)CN([C@@H]8CCC(=O)NC8=O)C9=O)CC7)cc6)C5)cn4c3=O)c2)COC1 (single isomer, unassigned) [Compound 83] | > 10 | < 30 | – |

Reference: patent publication US20250340552A1, “COMPOUNDS, COMPOSITIONS AND METHODS OF TREATING DISORDERS” (HOTSPOT THERAPEUTICS, INC., priority 2022, published 2025)
